The values that follow come from paper PMC5666424, “Marine-Derived 2-Aminoimidazolone Alkaloids. Leucettamine B-Related Polyandrocarpamines Inhibit Mammalian and Protozoan DYRK & CLK Kinases” (Marine Drugs, 2017).

Holding throughout (test): Protein kinase assay
For one experiment, the target named is CLK2 (Mus musculus, UniProt O35491). As to conditions: IC50 CLK2, 15 μmol/L ATP.
Another experiment deals with TgCLK (Toxoplasma gondii, UniProt V4ZJD6). The experiment is classed as biochemical.
For another experiment, the target named is GSK-3α/β. The class given is biochemical, porcine. As to conditions: 15 μmol/L ATP.
A further experiment has as its target CLK4 (Mus musculus, UniProt O35493). As to conditions: IC50 CLK4, 15 μmol/L ATP.
The target in the next experiment is DYRK1B (Homo sapiens, UniProt Q9Y463). The class given is biochemical. The following applies: 15 μmol/L ATP.
Sequence of DYRK1B (Q9Y463 whole entry): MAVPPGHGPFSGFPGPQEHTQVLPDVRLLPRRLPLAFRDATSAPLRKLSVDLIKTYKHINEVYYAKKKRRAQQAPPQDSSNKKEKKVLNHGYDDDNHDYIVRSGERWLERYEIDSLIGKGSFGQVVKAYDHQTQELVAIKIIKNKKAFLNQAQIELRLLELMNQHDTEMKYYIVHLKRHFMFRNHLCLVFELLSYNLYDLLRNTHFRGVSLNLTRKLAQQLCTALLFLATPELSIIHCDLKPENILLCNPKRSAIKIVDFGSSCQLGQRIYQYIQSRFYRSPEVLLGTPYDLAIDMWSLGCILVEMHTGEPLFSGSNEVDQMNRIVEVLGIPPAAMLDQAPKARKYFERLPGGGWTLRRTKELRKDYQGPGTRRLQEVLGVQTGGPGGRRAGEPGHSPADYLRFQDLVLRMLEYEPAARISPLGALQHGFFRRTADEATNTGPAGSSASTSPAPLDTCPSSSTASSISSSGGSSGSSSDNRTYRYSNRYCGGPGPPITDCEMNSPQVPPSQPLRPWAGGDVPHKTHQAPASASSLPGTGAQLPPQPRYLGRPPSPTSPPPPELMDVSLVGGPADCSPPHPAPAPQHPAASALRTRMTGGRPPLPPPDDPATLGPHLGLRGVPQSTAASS
Another experiment concerns the target T1, CDK5/p25 (Homo sapiens, UniProt Q00535).
T1 construct: made in house
The experiment is classed as biochemical. The following applies: 15 μmol/L ATP; read-out: IC50 CDK5/p25.

Another experiment addresses CLK3 (Mus musculus, UniProt O35492). As to conditions: IC50 CLK3, 15 μmol/L ATP.
For the next experiment, the target named is CDK9/cyclin T (Homo sapiens, UniProt P50750). As to conditions: IC50 CDK9/cyclin T, 15 μmol/L ATP.
Sequence of CDK9/cyclin T (P50750 whole entry): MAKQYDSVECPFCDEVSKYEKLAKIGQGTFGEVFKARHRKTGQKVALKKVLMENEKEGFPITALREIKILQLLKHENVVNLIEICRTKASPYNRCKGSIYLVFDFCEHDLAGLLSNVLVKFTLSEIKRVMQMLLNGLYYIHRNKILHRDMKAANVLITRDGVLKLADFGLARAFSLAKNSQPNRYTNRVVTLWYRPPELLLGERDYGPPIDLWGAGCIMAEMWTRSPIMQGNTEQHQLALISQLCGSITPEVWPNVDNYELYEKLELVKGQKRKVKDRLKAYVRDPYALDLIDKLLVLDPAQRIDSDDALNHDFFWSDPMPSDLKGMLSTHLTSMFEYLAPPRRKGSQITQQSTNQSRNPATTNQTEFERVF
Sequence of CDK9/cyclin T (O60563 whole entry partner): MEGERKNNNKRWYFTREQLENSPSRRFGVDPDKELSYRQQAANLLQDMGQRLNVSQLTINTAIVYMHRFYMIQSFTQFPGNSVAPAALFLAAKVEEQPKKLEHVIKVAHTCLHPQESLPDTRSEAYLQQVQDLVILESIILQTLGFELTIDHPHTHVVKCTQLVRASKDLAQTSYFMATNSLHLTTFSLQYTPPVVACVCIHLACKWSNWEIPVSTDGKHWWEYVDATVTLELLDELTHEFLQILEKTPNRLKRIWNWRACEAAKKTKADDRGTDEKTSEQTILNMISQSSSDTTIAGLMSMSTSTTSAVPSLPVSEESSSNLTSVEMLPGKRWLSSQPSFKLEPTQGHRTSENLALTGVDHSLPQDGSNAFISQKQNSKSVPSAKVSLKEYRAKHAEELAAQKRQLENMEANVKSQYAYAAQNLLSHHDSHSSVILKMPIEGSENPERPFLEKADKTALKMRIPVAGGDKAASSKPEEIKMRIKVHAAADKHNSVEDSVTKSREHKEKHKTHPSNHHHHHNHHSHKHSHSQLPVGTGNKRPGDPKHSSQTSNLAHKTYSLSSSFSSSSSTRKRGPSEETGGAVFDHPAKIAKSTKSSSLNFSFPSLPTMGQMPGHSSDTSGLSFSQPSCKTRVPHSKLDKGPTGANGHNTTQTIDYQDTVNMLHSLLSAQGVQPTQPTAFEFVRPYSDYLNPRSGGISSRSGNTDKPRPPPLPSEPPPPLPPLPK
Another experiment addresses T2, CDK2/cyclin A (Homo sapiens, UniProt P24941).
T2 construct: made in house
The experiment is classed as biochemical.

The next experiment concerns the target DYRK1A (Homo sapiens, UniProt Q13627). The experiment is classed as biochemical. The following applies: 15 μmol/L ATP.
The target in the next experiment is CK1δ/ε. The class given is biochemical, porcine. As to conditions: 15 μmol/L ATP. On the procedure: CK1δ/ε (porcine brain, native) and LmCK1 (leishmania major, recombinant, expressed in E. coli as HIS fusion proteins) was assayed as described for CDK1 but in buffer C and using 25 μM CKS peptide ([…]pSAYSITA), a CK1-specific substrate.
Another experiment has as its target TbCLK1 (Trypanosoma brucei brucei, UniProt Q382U0). The experiment is classed as biochemical.
A further experiment deals with GlCLK (Giardia intestinalis, UniProt A8BBY0). The class given is biochemical.
Sequence of GlCLK (A8BBY0 entry or part of it): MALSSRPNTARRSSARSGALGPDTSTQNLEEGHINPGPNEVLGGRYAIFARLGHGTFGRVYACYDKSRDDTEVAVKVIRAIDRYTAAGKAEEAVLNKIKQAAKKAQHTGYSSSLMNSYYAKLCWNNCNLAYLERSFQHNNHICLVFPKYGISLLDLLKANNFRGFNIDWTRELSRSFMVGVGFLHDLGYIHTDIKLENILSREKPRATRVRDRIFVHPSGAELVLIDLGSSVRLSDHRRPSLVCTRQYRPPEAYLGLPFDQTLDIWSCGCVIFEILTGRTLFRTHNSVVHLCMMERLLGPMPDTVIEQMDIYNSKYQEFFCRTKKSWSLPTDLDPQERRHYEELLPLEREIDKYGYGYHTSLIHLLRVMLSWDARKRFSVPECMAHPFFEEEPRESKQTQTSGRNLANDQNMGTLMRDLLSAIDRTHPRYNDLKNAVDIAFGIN
The target in a further experiment is LmDYRK2 (Leishmania major, UniProt Q4Q405). The experiment is classed as biochemical.
Sequence of LmDYRK2 (Q4Q405 entry or part of it): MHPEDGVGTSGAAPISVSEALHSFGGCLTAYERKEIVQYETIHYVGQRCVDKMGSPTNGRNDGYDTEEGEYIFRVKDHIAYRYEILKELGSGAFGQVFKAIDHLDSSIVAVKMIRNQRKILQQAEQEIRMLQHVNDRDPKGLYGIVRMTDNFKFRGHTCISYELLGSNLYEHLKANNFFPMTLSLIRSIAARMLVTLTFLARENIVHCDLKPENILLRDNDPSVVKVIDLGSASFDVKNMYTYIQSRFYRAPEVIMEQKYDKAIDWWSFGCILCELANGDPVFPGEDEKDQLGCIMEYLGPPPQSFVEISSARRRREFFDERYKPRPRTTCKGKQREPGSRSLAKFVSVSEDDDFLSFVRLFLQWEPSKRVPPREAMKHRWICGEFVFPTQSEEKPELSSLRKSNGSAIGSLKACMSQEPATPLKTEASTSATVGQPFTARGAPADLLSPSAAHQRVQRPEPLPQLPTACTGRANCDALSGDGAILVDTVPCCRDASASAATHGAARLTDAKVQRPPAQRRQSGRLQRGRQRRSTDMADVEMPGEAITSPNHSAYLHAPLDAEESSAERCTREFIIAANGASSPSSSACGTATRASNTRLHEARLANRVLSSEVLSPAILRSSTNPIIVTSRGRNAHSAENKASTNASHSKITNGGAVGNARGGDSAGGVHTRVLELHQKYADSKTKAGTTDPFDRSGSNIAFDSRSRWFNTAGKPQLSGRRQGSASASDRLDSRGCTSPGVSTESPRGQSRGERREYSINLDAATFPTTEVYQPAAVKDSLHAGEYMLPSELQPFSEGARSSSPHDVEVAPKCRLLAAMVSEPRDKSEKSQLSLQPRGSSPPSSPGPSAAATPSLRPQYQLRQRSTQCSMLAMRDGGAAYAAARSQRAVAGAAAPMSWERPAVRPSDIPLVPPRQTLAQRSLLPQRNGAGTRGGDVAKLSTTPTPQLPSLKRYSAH
Another experiment has as its target TcCLK1 (Trypanosoma cruzi, UniProt Q4E3Z1). The experiment is classed as biochemical.
The next experiment has as its target PfCLK1 (Plasmodium falciparum, UniProt Q8IL19). The experiment is classed as biochemical.
A further experiment addresses LmCLK (Leishmania major, UniProt Q4QHY4). The class given is biochemical.
The target of another experiment is CpLAMMER (Cryptosporidium parvum, UniProt A3FQG5). The class given is biochemical.
Sequence of CpLAMMER (A3FQG5 entry or part of it): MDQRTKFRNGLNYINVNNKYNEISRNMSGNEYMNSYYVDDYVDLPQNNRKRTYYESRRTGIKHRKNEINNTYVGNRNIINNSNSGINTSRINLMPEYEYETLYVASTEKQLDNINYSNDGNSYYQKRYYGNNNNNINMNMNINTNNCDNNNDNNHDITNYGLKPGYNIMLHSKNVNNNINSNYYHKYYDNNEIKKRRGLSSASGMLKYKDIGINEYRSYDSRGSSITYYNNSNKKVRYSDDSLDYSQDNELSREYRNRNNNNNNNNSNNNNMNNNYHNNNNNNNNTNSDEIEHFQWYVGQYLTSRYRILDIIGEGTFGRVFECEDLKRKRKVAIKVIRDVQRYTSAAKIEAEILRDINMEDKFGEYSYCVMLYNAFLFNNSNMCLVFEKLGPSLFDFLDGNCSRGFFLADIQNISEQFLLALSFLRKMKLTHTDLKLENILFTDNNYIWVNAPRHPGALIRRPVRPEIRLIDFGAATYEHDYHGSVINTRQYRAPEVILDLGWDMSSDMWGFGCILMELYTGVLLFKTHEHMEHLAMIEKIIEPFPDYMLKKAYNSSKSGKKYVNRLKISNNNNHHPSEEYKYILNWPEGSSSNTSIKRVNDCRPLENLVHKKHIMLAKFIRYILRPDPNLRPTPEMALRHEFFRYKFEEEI
In another experiment the target is T3, PfGSK-3 (Plasmodium falciparum, UniProt O77344).
T3 sequence (O77344 1-440): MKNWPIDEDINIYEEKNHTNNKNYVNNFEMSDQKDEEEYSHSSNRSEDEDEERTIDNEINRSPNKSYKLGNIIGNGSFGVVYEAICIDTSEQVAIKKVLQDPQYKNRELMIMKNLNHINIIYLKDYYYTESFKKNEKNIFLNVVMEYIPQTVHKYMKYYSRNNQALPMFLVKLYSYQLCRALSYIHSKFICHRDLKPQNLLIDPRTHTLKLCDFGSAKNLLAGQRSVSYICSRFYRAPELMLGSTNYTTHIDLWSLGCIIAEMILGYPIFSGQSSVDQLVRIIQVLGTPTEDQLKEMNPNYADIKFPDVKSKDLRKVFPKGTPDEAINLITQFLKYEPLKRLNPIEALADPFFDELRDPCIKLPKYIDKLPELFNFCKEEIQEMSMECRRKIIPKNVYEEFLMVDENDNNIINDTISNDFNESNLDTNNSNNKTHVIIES
The class given is biochemical.

For a further experiment, the target named is LdDYRK1B (Leishmania donovani, UniProt E9BC59). The experiment is classed as biochemical. The following applies: 15 μmol/L ATP.
The next experiment has as its target LdDYRK3 (Leishmania donovani, UniProt E9BS59). The class given is biochemical.
A further experiment has as its target LdDYRK4 (Leishmania donovani, UniProt A0A3Q8IC55). The experiment is classed as biochemical.
In the next experiment the target is CDK1/cyclin B. The experiment is classed as biochemical, starfish. As to conditions: 15 μmol/L ATP.
Setting [1] is: 15 μmol/L ATP; read-out: IC50 TgCLK.
The mark [2] stands for this setting: 15 μmol/L ATP, read-out: IC50 CDK2/cyclin A.
[3] abbreviates: 15 μmol/L ATP, read-out: IC50 TbCLK1.
The mark [4] stands for this setting: 15 μmol/L ATP, read-out: IC50 GlCLK.
Where [5] appears, read: 15 μmol/L ATP, read-out: IC50 LmDYRK2.
Setting [6] is: 15 μmol/L ATP, read-out: IC50 TcCLK1.
[7] abbreviates: 15 μmol/L ATP, read-out: IC50 PfCLK1.
[8] abbreviates: 15 μmol/L ATP, read-out: IC50 LmCLK.
Setting [9] is: 15 μmol/L ATP, read-out: IC50 CpLAMMER.
The mark [10] stands for this setting: 15 μmol/L ATP, read-out: IC50 PfGSK-3.
Where [11] appears, read: 15 μmol/L ATP, read-out: IC50 LdDYRK3.
The mark [12] stands for this setting: 15 μmol/L ATP, read-out: IC50 LdDYRK4.

Where two headings read alike, the source gives them in different places. Bounds are passed on as bounds.

Sequence of CLK3 (O35492 whole entry): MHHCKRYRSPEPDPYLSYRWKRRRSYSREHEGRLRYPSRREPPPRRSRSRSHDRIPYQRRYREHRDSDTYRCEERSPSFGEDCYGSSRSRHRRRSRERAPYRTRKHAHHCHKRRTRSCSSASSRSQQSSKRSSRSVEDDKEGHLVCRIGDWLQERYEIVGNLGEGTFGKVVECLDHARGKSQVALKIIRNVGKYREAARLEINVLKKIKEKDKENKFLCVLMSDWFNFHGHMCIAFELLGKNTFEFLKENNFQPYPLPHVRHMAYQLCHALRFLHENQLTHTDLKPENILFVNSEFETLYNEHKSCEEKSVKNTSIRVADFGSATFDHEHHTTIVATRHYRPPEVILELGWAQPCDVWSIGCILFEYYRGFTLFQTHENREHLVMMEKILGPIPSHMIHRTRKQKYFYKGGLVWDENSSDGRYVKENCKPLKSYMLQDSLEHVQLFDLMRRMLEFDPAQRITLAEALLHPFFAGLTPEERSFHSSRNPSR
T1 sequence (Q00535 whole entry): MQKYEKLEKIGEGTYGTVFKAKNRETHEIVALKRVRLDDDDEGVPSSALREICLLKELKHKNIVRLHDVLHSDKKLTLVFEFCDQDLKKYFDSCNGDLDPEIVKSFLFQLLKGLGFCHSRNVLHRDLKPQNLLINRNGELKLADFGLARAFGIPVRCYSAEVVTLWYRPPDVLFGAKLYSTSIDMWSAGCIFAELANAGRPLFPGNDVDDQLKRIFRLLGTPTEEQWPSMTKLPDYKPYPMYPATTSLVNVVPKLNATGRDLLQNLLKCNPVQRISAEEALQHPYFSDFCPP
T1 sequence (Q15078 99-307 partner limits assumed): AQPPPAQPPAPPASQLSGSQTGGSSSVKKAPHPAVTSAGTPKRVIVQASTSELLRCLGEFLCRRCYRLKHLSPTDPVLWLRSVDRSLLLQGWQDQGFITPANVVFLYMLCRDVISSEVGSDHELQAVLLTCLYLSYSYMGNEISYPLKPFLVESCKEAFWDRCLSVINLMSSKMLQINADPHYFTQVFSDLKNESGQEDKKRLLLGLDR

For the molecule `NC1=N/C(=C\CCNC(=O)c2cc(Br)c(Br)[nH]2)C(=O)N1` [Dispacamide], the IC50 on CLK2, at TgCLK (setting [1]), at GSK-3α/β, against CLK4, against DYRK1B and at CDK5/p25 was over 10 µM throughout. The IC50 against CLK3, against CDK9/cyclin T, at CDK2/cyclin A (setting [2]), at DYRK1A, at CK1δ/ε and on TbCLK1 (setting [3]) was over 10 µM each time. For the same molecule, the IC50 at GlCLK (setting [4]), on LmDYRK2 (setting [5]), at TcCLK1 (setting [6]), on PfCLK1 (setting [7]), on LmCLK (setting [8]) and on CpLAMMER (setting [9]) was over 10 µM each time. The IC50 on PfGSK-3 (setting [10]), on LdDYRK1B, at LdDYRK3 (setting [11]), on LdDYRK4 (setting [12]) and against CDK1/cyclin B was over 10 µM each time.

Turning to `NC1=NC(=O)/C(=C2\CCNC(=O)c3[nH]cc(Br)c32)N1` [Spongiacidin B], the IC50 against CLK2 was 0.0073 µM; on TgCLK (setting [1]), 0.48 µM; against GSK-3α/β it was 0.044 µM; at CLK4, 0.0036 µM; against DYRK1B it was 0.0058 µM; at CDK5/p25 it was 0.042 µM. The IC50 against CLK3 is 0.049 µM; on CDK9/cyclin T, 0.2 µM; on CDK2/cyclin A (setting [2]) it was 0.068 µM; at DYRK1A, 0.78 µM; at CK1δ/ε, 0.031 µM; at TbCLK1 (setting [3]), 0.71 µM. Further, the IC50 at GlCLK (setting [4]) came to 0.12 µM; on LmDYRK2 (setting [5]) it was 9 µM; at TcCLK1 (setting [6]) it was 1.1 µM; at PfCLK1 (setting [7]), 0.085 µM; at LmCLK (setting [8]) it was 5.2 µM; at CpLAMMER (setting [9]), 0.13 µM. Further, the IC50 at PfGSK-3 (setting [10]) was 0.038 µM; at LdDYRK1B, 0.5 µM; on LdDYRK3 (setting [11]) it was 0.3 µM; at LdDYRK4 (setting [12]), over 10 µM; at CDK1/cyclin B it was 0.031 µM.

As for `NC1=N/C(=C\c2ccc(O)c(O)c2)C(=O)N1` [Polyandrocarpamine B], the IC50 against CLK2 was 4.9 µM; on TgCLK (setting [1]), over 10 µM; at GSK-3α/β, over 10 µM; against CLK4 it was 0.82 µM; on DYRK1B, 1.2 µM; on CDK5/p25, over 10 µM. Also, the IC50 was 8.6 µM at CLK3; 5.2 µM on CDK9/cyclin T; over 10 µM at CDK2/cyclin A (setting [2]); 0.47 µM on DYRK1A; over 10 µM at CK1δ/ε; over 10 µM on TbCLK1 (setting [3]). Moreover, the IC50 at GlCLK (setting [4]) is 2.2 µM; at LmDYRK2 (setting [5]) it was over 10 µM; on TcCLK1 (setting [6]) it was over 10 µM; at PfCLK1 (setting [7]), 3.1 µM; on LmCLK (setting [8]) it was over 10 µM; at CpLAMMER (setting [9]), 0.2 µM. Also, the IC50 at PfGSK-3 (setting [10]), against LdDYRK1B, on LdDYRK3 (setting [11]), on LdDYRK4 (setting [12]) and at CDK1/cyclin B was over 10 µM each time.

As for `CN1C(=O)/C(=C/c2ccc3c(c2)OCO3)N=C1N` [Leucettamine B], the IC50 is 0.91 µM against CLK2; 4.1 µM on TgCLK (read-out: IC50 TgCLK; 15 μmol/L ATP); 7.3 µM against GSK-3α/β; 0.12 µM against CLK4; 9.7 µM on CLK3; over 10 µM against CDK9/cyclin T. Further, the IC50 against CDK2/cyclin A was over 10 µM; against CK1δ/ε it was over 10 µM; at TbCLK1, over 10 µM; at GlCLK, 3.1 µM; on LmDYRK2, 4.2 µM; against TcCLK1, over 10 µM. Further, the IC50 against PfCLK1 was 0.79 µM; against LmCLK it was over 10 µM; on CpLAMMER, 1.8 µM; against PfGSK-3 it was over 10 µM; against LdDYRK1B, 6.9 µM; against LdDYRK3, over 10 µM. The IC50 against LdDYRK4 and against CDK1/cyclin B was over 10 µM throughout.

For `CN1C(=N)N(C)/C(=C\c2c[nH]c3ccccc23)C1=O` [Aplysinopsine], the IC50 against CLK2, on TgCLK (setting [1]), on GSK-3α/β, against CLK4, against DYRK1B and at CDK5/p25 was over 10 µM each time. In addition, the IC50 on CLK3, on CDK9/cyclin T, at CDK2/cyclin A (setting [2]), against DYRK1A, at CK1δ/ε and at TbCLK1 (setting [3]) was over 10 µM throughout. Besides, the IC50 at GlCLK (setting [4]), at LmDYRK2 (setting [5]), on TcCLK1 (setting [6]), at PfCLK1 (setting [7]), on LmCLK (setting [8]) and on CpLAMMER (setting [9]) was over 10 µM each time. In addition, the IC50 at PfGSK-3 (setting [10]), on LdDYRK1B, on LdDYRK3 (setting [11]), at LdDYRK4 (setting [12]) and against CDK1/cyclin B was over 10 µM each time.

As to `CN1C(=O)N=C(Nc2nc(Cc3ccc4c(c3)OCO4)cn2C)C1=O` [Clathridine], the IC50 on CLK2 was 6 µM; on TgCLK (setting [1]), over 10 µM; at GSK-3α/β it was over 10 µM; against CLK4, 3.9 µM; on DYRK1B, over 10 µM; on CDK5/p25, over 10 µM. Besides, the IC50 at CLK3 was over 10 µM; at CDK9/cyclin T, over 10 µM; on CDK2/cyclin A (setting [2]), over 10 µM; against DYRK1A, 7.8 µM; against CK1δ/ε, over 10 µM; at TbCLK1 (setting [3]), over 10 µM. Besides, the IC50 at GlCLK (setting [4]), at LmDYRK2 (setting [5]), at TcCLK1 (setting [6]), at PfCLK1 (setting [7]), at LmCLK (setting [8]) and on CpLAMMER (setting [9]) was over 10 µM each time. The IC50 at PfGSK-3 (setting [10]), against LdDYRK1B, on LdDYRK3 (setting [11]), at LdDYRK4 (setting [12]) and at CDK1/cyclin B was over 10 µM throughout.

In the case of `COc1cc(/C=C2\N=C(N)NC2=O)ccc1O` [Polyandrocarpamine A], the IC50 on CLK2 was 1.2 µM; on TgCLK (setting [1]), over 10 µM; against CLK4, 0.32 µM; on DYRK1B it was 0.43 µM; at CDK5/p25, over 10 µM; at CLK3, 2.6 µM. The IC50 against CDK9/cyclin T is 0.93 µM; at CDK2/cyclin A (setting [2]), over 10 µM; against DYRK1A, 0.27 µM; at CK1δ/ε it was 3.3 µM; on TbCLK1 (setting [3]) it was over 10 µM; on GlCLK (setting [4]), 0.95 µM. In addition, the IC50 on LmDYRK2 (setting [5]) is 5.9 µM; at TcCLK1 (setting [6]), over 10 µM; on PfCLK1 (setting [7]) it was 0.65 µM; at LmCLK (setting [8]), over 10 µM; on CpLAMMER (setting [9]) it was 0.17 µM; at PfGSK-3 (setting [10]), over 10 µM. The figures for the IC50 at LdDYRK1B, at LdDYRK3 (setting [11]) and at LdDYRK4 (setting [12]) were 1.1 µM, over 10 µM and over 10 µM, respectively.
